Assay results as given in patent US9751837B2, “Kinase inhibitors” (RESPIVERT LIMITED, priority 2014, dated 2017).
Converted amounts (≈) assume the structure as drawn.

Legend:
[1] = target: GSK 3α (Homo sapiens (Human), UniProt P49840); test: GSK 3α enzyme inhibition (Method 2), Z-LYTE FRET; assay type: biochemical; details: read-out: IC50 Values for Enzyme Inhibition GSK3α
Description: The enzyme inhibitory activities of compounds disclosed herein are determined by FRET using synthetic peptides labelled with both donor and acceptor fluorophores (Z-LYTE, Invitrogen Ltd., Paisley, UK).
The following two assay variants can be used for determination of GSK 3α inhibition.
The inhibitory activities of compounds of the invention against the GSK 3α enzyme isoform (Invitrogen), are evaluated by determining the level of activation/phosphorylation of the target peptide. The GSK3-α protein (500 ng/mL, 2.5 μL) is mixed with the test compound (2.5 μL at either 4 μg/mL, 0.4 μg/mL, 0.04 μg/mL, or 0.004 μg/mL) for 2 hr at RT. The FRET peptide (8 μM, 2.5 μL), which is a phosphorylation target for GSK3α, and ATP (40 μM, 2.5 μL) are then added to the enzyme/compound mixture and the resulting mixture incubated for 1 hr. Development reagent (protease, 5 μL) is added for 1 hr prior to detection in a fluorescence microplate reader (Varioskan® Flash, ThermoFisher Scientific).
In all cases, the site-specific protease cleaves non-phosphorylated peptide only and eliminates the FRET signal. Phosphorylation levels of each reaction are calculated using the ratio of coumarin emission (donor) over fluorescein emission (acceptor), for which high ratios indicate high phosphorylation and low ratios indicate low phosphorylation levels.
This method follows the same steps as Method 1 above, but utilises a shorter period of mixing of the test compound (105 minutes instead of 2 hours) with the GSK3-α protein. In addition, the concentrations of test compound employed are either 10 μg/mL, 1 μg/mL, 0.1 μg/mL, or 0.01 μg/mL

[2] = Solubility in fasted-state simulated colonic fluid (FaSSCoF) at pH 6.5; assay type: physicochemical; details: 25 °C, pH 6.5, fassgf or other biorelevant, thermodynamic from solid
Summary of the method: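 Compounds were suspended at up to 2-10 mg/mL in pH 6.5 Tris/maleate FaSSCoF containing a five-bile-acid mixture, phosphatidylcholine, palmitic acid and BSA. After 24 h equilibration at 25° C the suspension was filtered and the filtrate quantified by HPLC peak area against a standard.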

[3] = system: Jurkat cells; test: Cell cytotoxicity assay (r); assay type: cell-based, human; details: 24 hours
Description: 1×10^5 Jurkat cells (immortalised human T lymphocytes) are added to the appropriate number of wells of a 96 well plate in 100 μL of media (RPMI supplemented with 10% foetal bovine serum). 1 μL of DMSO control (final concentration 1.0% v/v) or test compound (final concentration 20, 5 or 1 μg/mL) is added to the wells and incubated at 37° C., 5% CO2. After 24 hours, the plate is centrifuged at 1200 rpm for 3 minutes and the supernatant discarded. Cells are then resuspended in 150 μL (final concentration 7.5 μg/mL) of propidium iodide (PI) in PBS and incubated at 37° C., 5% CO2 for 15 minutes. After 15 minutes, cells are analysed by flow cytometry (BD accuri) using the FL3 window. The % viability is calculated as the % of cells that are PI negative in the test wells normalised to the DMSO control.

[4] = pH 6.5 FaSSCoF Solubility (mg/mL) Run 1
[5] = pH 6.5 FaSSCoF Solubility (mg/mL) Run 2

Chain of GSK 3α (P49840 whole entry): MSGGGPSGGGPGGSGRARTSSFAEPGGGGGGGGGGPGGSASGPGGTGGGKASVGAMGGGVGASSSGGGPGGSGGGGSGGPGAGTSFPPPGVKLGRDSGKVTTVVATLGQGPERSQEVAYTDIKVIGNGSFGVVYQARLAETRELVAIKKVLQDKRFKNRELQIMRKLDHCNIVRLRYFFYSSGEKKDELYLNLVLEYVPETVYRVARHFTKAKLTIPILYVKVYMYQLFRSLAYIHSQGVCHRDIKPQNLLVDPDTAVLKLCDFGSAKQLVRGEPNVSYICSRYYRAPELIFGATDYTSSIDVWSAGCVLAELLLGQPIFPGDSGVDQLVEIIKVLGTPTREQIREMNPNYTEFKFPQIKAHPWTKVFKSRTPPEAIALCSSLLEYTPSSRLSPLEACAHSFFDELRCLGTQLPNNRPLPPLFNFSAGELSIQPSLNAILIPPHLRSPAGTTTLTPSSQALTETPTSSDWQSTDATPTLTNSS

SMILES | IC50 [1] | solubility thermodynamic at 24 h [2, 4] | solubility thermodynamic at 24 h [2, 5] | % Viability at 20 μg/mL [3] | % Viability at 1 μg/mL ([3]; 1 μg/mL) | % Viability at 5 μg/mL [3]
COc1c(NC(=O)Nc2ccc(Oc3ccnc(Nc4ccc(C(=O)O)cc4)c3)c3ccccc23)cc(C(C)(C)C)cc1NS(C)(=O)=O [17(t), 4-[[4-[[4-[[5-tert-butyl-3-(methanesulfonamido)-2-methoxy-phenyl]carbamoylamino]-1-naphthyl]oxy]-2-pyridyl]amino]benzoic acid] | 140 nM | – | – | – | – | –
COc1cc(Nc2cc(Oc3ccc(NC(=O)Nc4cc(C(C)(C)C)cc(NS(C)(=O)=O)c4OC)c4ccccc34)ccn2)ccc1C(=O)N(C)CCN1CCOCC1 [17(ab), 4-[[4-[[4-[[5-tert-butyl-3-(methanesulfonamido)-2-methoxy-phenyl]carbamoylamino]-1-naphthyl]oxy]-2-pyridyl]amino]-2-methoxy-N-methyl-N-(2-morpholinoethyl)benzamide] | 596 nM | – | – | – | – | –
COc1cc(Nc2cc(Oc3ccc(NC(=O)Nc4cc(C(C)(C)C)cc(NS(C)(=O)=O)c4OC)c4ccccc34)ccn2)ccc1C(=O)NCCN(C)CCO [17(ac), 4-[[4-[[4-[[5-tert-butyl-3-(methanesulfonamido)-2-methoxy-phenyl]carbamoylamino]-1-naphthyl]oxy]-2-pyridyl]amino]-N-[2-[2-hydroxyethyl(methyl)amino]ethyl]-2-methoxy-benzamide] | 3020 nM | – | – | – | – | –
COCCOCCOCCOc1ccc(Nc2cc(Oc3ccc(NC(=O)Nc4cc(C(C)(C)C)cc(NS(C)(=O)=O)c4OC)c4ccccc34)ccn2)cc1C#N [Example 8, N-(5-(tert-Butyl)-3-(3-(4-((2-((3-cyano-4-(2-(2-(2-methoxyethoxy)ethoxy)ethoxy)phenyl)amino)pyridin-4-yl)oxy)naphthalen-1-yl)ureido)-2-methoxyphenyl)methanesulfonamide] | 3770 nM | – | – | – | – | –
COc1cc(Nc2cc(Oc3ccc(NC(=O)Nc4cc(C(C)(C)C)cc(NS(C)(=O)=O)c4OC)c4ccccc34)ccn2)ccc1C(=O)NCCN1CCCN(C)CC1 [17(f), 4-[[4-[[4-[[5-tert-butyl-3-(methanesulfonamido)-2-methoxy-phenyl]carbamoylamino]-1-naphthyl]oxy]-2-pyridyl]amino]-2-methoxy-N-[2-(4-methyl-1,4-diazepan-1-yl)ethyl]benzamide] | 1090 nM | – | – | – | – | –
COc1cc(Nc2cc(Oc3ccc(NC(=O)Nc4cc(C(C)(C)C)cc(NS(C)(=O)=O)c4OC)c4ccccc34)ccn2)ccc1S(=O)(=O)N(C)CCN1CCN(C)CC1 [17(bb), 4-((4-((4-(3-(5-(tert-Butyl)-2-methoxy-3-(methylsulfonamido)phenyl)ureido)naphthalen-1-yl)oxy)pyridin-2-yl)amino)-2-methoxy-N-methyl-N-(2-(4-methylpiperazin-1-yl)ethyl)benzenesulfonamide] | – | < 1 µg/mL | < 1 µg/mL | 0.2% | – | –
COc1cc(Nc2cc(Oc3ccc(NC(=O)Nc4cc(C(C)(C)C)cc(NS(C)(=O)=O)c4OC)c4ccccc34)ccn2)ccc1-c1nn[nH]n1 [Example 24, N-(5-(tert-Butyl)-2-methoxy-3-(3-(4-((2-((3-methoxy-4-(2H-tetrazol-5-yl)phenyl)amino)pyridin-4-yl)oxy)naphthalen-1-yl)ureido)phenyl)methanesulfonamide] | – | 12 µg/mL (≈ 16.6 µM) | 10 µg/mL (≈ 13.8 µM) | 9.7% | – | –
COc1cc(Nc2nccc(Oc3ccc(NC(=O)Nc4cc(C(C)(C)C)cc(NS(C)(=O)=O)c4OC)c4ccccc34)n2)ccc1S(N)(=O)=O [Example 28, 4-((4-((4-(3-(5-(tert-Butyl)-2-methoxy-3-(methylsulfonamido)phenyl)ureido)naphthalen-1-yl)oxy)pyrimidin-2-yl)amino)-2-methoxybenzenesulfonamide] | – | < 1 µg/mL | < 1 µg/mL | – | 100.0% | –
COc1cc(Nc2nccc(Oc3ccc(NC(=O)Nc4cc(C(C)(C)C)cc(NS(C)(=O)=O)c4OC)c4ccccc34)n2)ccc1C(=O)NCCC1CCN(C)CC1 [17(an), 4-((4-((4-(3-(5-(tert-butyl)-2-methoxy-3-(methylsulfonamido)phenyl)ureido)naphthalen-1-yl)oxy)pyrimidin-2-yl)amino)-2-methoxy-N-(2-(1-methylpiperidin-4-yl)ethyl)benzamide] | – | 47 µg/mL (≈ 57 µM) | 49 µg/mL (≈ 59.4 µM) | 1.1% | – | –
COc1cc(Nc2cc(Oc3ccc(NC(=O)Nc4cc(C(C)(C)C)cc(NS(C)(=O)=O)c4OC)c4ccccc34)ccn2)ccc1C(=O)NC(CO)(CO)CO [17(cm), 4-((4-((4-(3-(5-(tert-Butyl)-2-methoxy-3-(methylsulfonamido)phenyl)ureido)naphthalen-1-yl)oxy)pyridin-2-yl)amino)-N-(1,3-dihydroxy-2-(hydroxymethyl)propan-2-yl)-2-methoxybenzamide] | – | 8 µg/mL (≈ 9.96 µM) | 9 µg/mL (≈ 11.2 µM) | – | – | 77.0%
COc1cc(Nc2cc(Oc3ccc(NC(=O)Nc4cc(C(C)(C)C)cc(NS(C)(=O)=O)c4OC)c4ccccc34)ccn2)ccc1C(=O)NC(C)CN1CCN(C)CC1 (stereo not drawn) [17(bl), 4-((4-((4-(3-(5-(tert-Butyl)-2-methoxy-3-(methylsulfonamido)phenyl)ureido)naphthalen-1-yl)oxy)pyridin-2-yl)amino)-2-methoxy-N-(1-(4-methylpiperazin-1-yl)propan-2-yl)benzamide] | – | 16 µg/mL (≈ 19.1 µM) | 17 µg/mL (≈ 20.3 µM) | 0.5% | – | 0.2%
COc1cc(Nc2nccc(Oc3ccc(NC(=O)Nc4cc(C(C)(C)C)cc(NS(C)(=O)=O)c4OC)c4ccccc34)n2)cc(OC)c1C(=O)NCCN1CCN(C)CC1 [17(az), 4-((4-((4-(3-(5-(tert-Butyl)-2-methoxy-3-(methylsulfonamido)phenyl)ureido)naphthalen-1-yl)oxy)pyrimidin-2-yl)amino)-2,6-dimethoxy-N-(2-(4-methylpiperazin-1-yl)ethyl)benzamide] | – | 1 µg/mL (≈ 1.17 µM) | 1 µg/mL (≈ 1.17 µM) | 4.5% | – | –
COc1c(NC(=O)Nc2ccc(Oc3ccnc(Nc4ccc(C(=O)NCCN5CCN(C)CC5)c(N(C)C)c4)c3)c3ccccc23)cc(C(C)(C)C)cc1NS(C)(=O)=O [17(bq), 4-((4-((4-(3-(5-(tert-Butyl)-2-methoxy-3-(methylsulfonamido)phenyl)ureido)naphthalen-1-yl)oxy)pyridin-2-yl)amino)-2-(dimethylamino)-N-(2-(4-methylpiperazin-1-yl)ethyl)benzamide] | – | 9 µg/mL (≈ 10.7 µM) | 9 µg/mL (≈ 10.7 µM) | 2.0% | – | –
COc1cc(Nc2cc(Oc3ccc(NC(=O)Nc4cc(NS(C)(=O)=O)cc(C(C)(C)C)c4)c4ccccc34)ccn2)ccc1C(=O)NCCCN1CCN(C)CC1 [17(bp), 4-((4-((4-(3-(3-(tert-Butyl)-5-(methylsulfonamido)phenyl)ureido)naphthalen-1-yl)oxy)pyridin-2-yl)amino)-2-methoxy-N-(3-(4-methylpiperazn-1-yl)propyl)benzamide] | – | 23 µg/mL (≈ 28.4 µM) | 24 µg/mL (≈ 29.7 µM) | 2.0% | – | 41.0%
COc1cc(Nc2cc(Oc3ccc(NC(=O)Nc4cc(C(C)(C)C)cc(NS(C)(=O)=O)c4OC)c4ccccc34)ccn2)ccc1C(=O)NCCN1CCN(C(C)C)CC1 [17(bf), 4-((4-((4-(3-(5-(tert-Butyl)-2-methoxy-3-(methylsulfonamido)phenyl)ureido)naphthalen-1-yl)oxy)pyridin-2-yl)amino)-N-(2-(4-isopropylpiperazin-1-yl)ethyl)-2-methoxybenzamide] | – | 13 µg/mL (≈ 15.2 µM) | 15 µg/mL (≈ 17.6 µM) | 0.6% | – | 1.5%
COc1cc(Nc2nccc(Oc3ccc(NC(=O)Nc4cc(C(C)(C)C)cc(NS(C)(=O)=O)c4OC)c4ccccc34)n2)ccc1C(=O)NCCN1CCN(C)CC1 [17(aq), 4-((4-((4-(3-(5-(tert-Butyl)-2-methoxy-3-(methylsulfonamido)phenyl)ureido)naphthalen-1-yl)oxy)pyrimidin-2-yl)amino)-2-methoxy-N-(2-(4-methylpiperazin-1-yl)ethyl)benzamide] | – | < 1 µg/mL | < 1 µg/mL | 1.3% | – | 0.2%
